Data on four compounds can be found in ChEMBL document CHEMBL3272321, “Preliminary biological studies of certain amino acid analogues” (J Med Chem, 1976).

The species entered for data set [1] is Mus musculus. The data set can be described thus: Toxicity in albino mouse assessed as tissue damage. It counts as organism-based. Particulars: in vivo.
In data set [2] the test system is Mus musculus. Kind of data set: Toxicity in albino mouse at 400 mg/kg, ip qd for 7 days measured after 7 days. In kind it is organism-based. Details: dose 400 mg/kg, route intraperitoneal. Particulars: in vivo, 168 h.
Data set [3] in a line: Retardation factor, Rf of the compound by paper chromatographic analysis. It counts as physicochemical.
Data set [4] has as its system Escherichia coli. The data set can be described thus: Bacteriostatic activity against Escherichia coli 9723 after 19 hrs by spectrophotometric analysis. In kind it is functional.
A short description of data set [5]: Drug excretion in albino mouse feces at 2 mg, sc after 24 hrs. It counts as ADME, organism-based. As to conditions: faeces, read-out: Drug excretion.
Data set [6] can be described thus: Drug excretion in albino mouse urine at 2 mg, sc after 24 hrs. It counts as ADME, organism-based. As to conditions: read-out: Drug excretion.
Data set [7] deals with Escherichia coli. Kind of data set: Bacteriostatic activity against Escherichia coli 9723 at 5 to 15 X 10^-5 mole/10 ml after 5 to 25 hrs by spectrophotometric analysis. It counts as functional, organism-based.
Data set [8] concerns Escherichia coli. Kind of data set: Bacteriostatic activity against Escherichia coli 9723 at 5 to 15 X 10^-5 mole/10 ml after 5 to 25 hrs by spectrophotometric analysis in presence of D-methionine. It counts as functional, organism-based.
Data set [9] deals with Escherichia coli. Kind of data set: Bacteriostatic activity against Escherichia coli 9723 at 5 to 15 X 10^-5 mole/10 ml after 5 to 25 hrs by spectrophotometric analysis in presence of L-methionine. It counts as functional, organism-based.
In data set [10] the test system is Escherichia coli. Kind of data set: Bacteriostatic activity against Escherichia coli 9723 after 8 hrs by spectrophotometric analysis. In kind it is functional.
Data set [11] relates to Escherichia coli. The data set can be described thus: Bacteriostatic activity against Escherichia coli 9723 at 5 to 15 X 10^-5 mole/10 ml after 5 to 25 hrs by spectrophotometric analysis in presence of L-phenylalanine. It counts as functional, organism-based.

The structures appear in SMILES notation. Activity calls are given as the source filed them. The rule behind the calls is not given here.

Consider `NC(C(=O)O)(C1CC1)C1CC1`, for which the Activity entry in the data set listed under Mus musculus [1] and with Mus musculus [2] was “Non-toxic” in each case. The same compound gave a Rf in [3] of 0.64.

Regarding `CC(N)(C(=O)O)C1CC1` (stereo not given), the Activity result in the data set listed under Mus musculus [1] and in the data set with Mus musculus [2] was “Non-toxic” each time. In [3], this compound yielded a Rf of 0.56.

As for `C=CCCC(C)(N)C(=O)O` (stereo not given), the values for the GI90 in the data set on Escherichia coli [4] and in the data set on Escherichia coli [10] were 0.01 M and 0.0013 M, respectively. Further, the results for the dose excreted at 24 h in data set [5] and in data set [6] were 2.2% and 97.6%, respectively. In the data set with Escherichia coli [7], the result was Active. Moreover, the outcome in the data set with Escherichia coli [8] and in the data set with Escherichia coli [9] was inactive. Further, the Activity entry in the data set listed under Mus musculus [1] and with Mus musculus [2] was “Non-toxic” in each case. In addition, the Rf in data set [3] was found to be 0.71.

Turning to `CC[C@](N)(Cc1ccccc1)C(=O)O`, the GI90 in the data set on Escherichia coli [4] came out at 0.005 M; in the data set on Escherichia coli [10] it was 0.0025 M. The values for the dose excreted at 24 h in data set [5] and in [6] were 2.1% and 97.9%, respectively. The outcome in the data set on Escherichia coli [11] was inactive. Further, the result in the data set with Escherichia coli [7] was Active. Besides, the Activity entry in the data set filed under Mus musculus [1] and in the data set with Mus musculus [2] was “Non-toxic” in each case. In data set [3], this compound yielded a Rf of 0.77.
